Structures are written as SMILES. The source made the active and inactive calls. No cut-off for these calls is given here.

The target of experiment [1] is T1, Sterol O-acyltransferase 1 (Homo sapiens) (UniProt P35610).
T1 sequence (whole entry): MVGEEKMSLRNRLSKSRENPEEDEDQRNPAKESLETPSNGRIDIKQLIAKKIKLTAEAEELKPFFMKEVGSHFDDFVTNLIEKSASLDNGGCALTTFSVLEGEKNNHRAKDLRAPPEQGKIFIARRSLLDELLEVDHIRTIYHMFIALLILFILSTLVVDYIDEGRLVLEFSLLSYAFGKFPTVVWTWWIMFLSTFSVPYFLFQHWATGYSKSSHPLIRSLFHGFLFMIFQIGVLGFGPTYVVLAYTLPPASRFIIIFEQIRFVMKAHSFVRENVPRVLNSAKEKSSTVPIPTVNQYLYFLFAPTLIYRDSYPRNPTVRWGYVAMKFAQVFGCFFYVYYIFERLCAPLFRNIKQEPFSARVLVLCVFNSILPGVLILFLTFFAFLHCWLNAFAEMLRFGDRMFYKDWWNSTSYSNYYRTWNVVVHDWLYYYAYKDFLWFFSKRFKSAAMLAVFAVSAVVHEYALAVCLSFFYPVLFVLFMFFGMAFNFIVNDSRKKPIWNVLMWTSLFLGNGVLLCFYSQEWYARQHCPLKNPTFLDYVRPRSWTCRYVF
Nature of the experiment: Inhibition of ACAT at 1 mg/mL.

Experiment [2] has as its target T1, Sterol O-acyltransferase 1 (Homo sapiens). In words: Inhibition of ACAT at 0.2 mg/mL.
For experiment [3] the target is unchanged. Nature of the experiment: Inhibition of ACAT at 0.05 mg/mL.

For the molecule `C[C@@H]1O[C@@H](O[C@H]2[C@H](O[C@H]3CC[C@]4(C)[C@H]5CC=C6[C@H]7[C@]8(CC[C@](C)(OC8=O)[C@@]7(C)O)CC[C@@]6(C)[C@]5(C)CC[C@H]4C3(C)C)OC[C@H](O)[C@@H]2O[C@@H]2O[C@H](CO)[C@@H](O)[C@H](O)[C@H]2O[C@@H]2O[C@H](CO)[C@@H](O)[C@H](O)[C@H]2O)[C@H](O)[C@H](O)[C@H]1O`, the outcome in experiment [1], in experiment [2] and in experiment [3] was inactive.

In turn, `C=C1CC[C@]2(C(=O)O[C@@H]3O[C@H](CO)[C@@H](O)[C@H](O)[C@H]3O[C@@H]3O[C@@H](C)[C@H](O)[C@@H](O)[C@H]3O)CC[C@]3(C)C(=CC[C@@H]4[C@@]5(C)CC[C@H](O[C@@H]6OC[C@H](O)[C@H](O[C@@H]7O[C@H](CO)[C@@H](O)[C@H](O)[C@H]7O[C@@H]7O[C@H](CO)[C@@H](O)[C@H](O)[C@H]7O)[C@H]6O[C@@H]6O[C@@H](C)[C@H](O)[C@@H](O)[C@H]6O)C(C)(C)[C@@H]5CC[C@]43C)[C@@H]2[C@]1(C)O` yielded an inhibition in experiment [1] of 60%. Also, the result in experiment [2] was inactive.

With `C[C@@H]1O[C@@H](O[C@H]2[C@H](O[C@H]3CC[C@]4(C)[C@H]5CC=C6[C@@H]7CC(C)(C)CC[C@]7(C(=O)O[C@@H]7O[C@H](CO)[C@@H](O)[C@H](O)[C@H]7O)CC[C@@]6(C)[C@]5(C)CC[C@H]4C3(C)C)OC[C@H](O)[C@@H]2O[C@@H]2O[C@H](CO)[C@@H](O)[C@H](O)[C@H]2O)[C@H](O)[C@H](O)[C@H]1O`, the values for the inhibition in experiment [1] and in experiment [3] were 25.4% and 31.7%, respectively. In addition, in experiment [2], the result was inactive.

Molecule `CC1(C)[C@@H](O[C@@H]2OC[C@H](O)[C@H](O)[C@H]2O[C@@H]2O[C@H](CO)[C@@H](O)[C@H](O)[C@H]2O)CC[C@]2(C)[C@H]3C[C@@H](O)C4=C5[C@]6(CC[C@](C)(OC6=O)[C@@]5(C)O)CC[C@@]4(C)[C@]3(C)CC[C@@H]12` registered an inhibition in experiment [1] of 24.1%. The result in experiment [2] was inactive.

On to `C[C@H]1[C@H](C)CC[C@]2(C(=O)O[C@@H]3O[C@H](CO)[C@@H](O)[C@H](O)[C@H]3O)CC[C@]3(C)C(=CC[C@@H]4[C@@]5(C)CC[C@H](O[C@H]6O[C@@H](C(=O)O)[C@H](O)[C@@H](O)[C@@H]6O)[C@@](C)(CO)[C@@H]5CC[C@]43C)[C@H]12`, for which the inhibition came to 63.9% in experiment [1] and 29% in experiment [2].

With `C[C@@H]1CC[C@]2(C(=O)O[C@@H]3O[C@H](CO)[C@@H](O)[C@H](O)[C@H]3O)CC[C@]3(C)C(=CC[C@@H]4[C@@]5(C)CC[C@H](O[C@@H]6OC[C@H](O)[C@H](O[C@@H]7O[C@H](CO)[C@@H](O)[C@H](O)[C@H]7O)[C@H]6O)C(C)(C)[C@@H]5CC[C@]43C)[C@@H]2[C@]1(C)O`, the result in experiment [1] and in experiment [2] was inactive.

`C[C@@H]1O[C@@H](O[C@H]2[C@H](O[C@H]3CC[C@]4(C)[C@H]5CC=C6[C@H]7[C@](C(=O)O[C@@H]8O[C@H](CO)[C@@H](O)[C@H](O)[C@H]8O)(CC[C@@H](C)[C@@]7(C)O)CC[C@@]6(C)[C@]5(C)CC[C@H]4C3(C)C)OC[C@H](O)[C@@H]2O[C@@H]2O[C@H](CO)[C@@H](O)[C@H](O)[C@H]2O)[C@H](O)[C@H](O)[C@H]1O`: the inhibition in experiment [1] was 31.8%; in experiment [2], 10.3%; in experiment [3] it was 10.9%.

Turning to `C[C@@H]1O[C@@H](O[C@H]2[C@H](O[C@H]3CC[C@]4(C)[C@H]5CC=C6[C@H]7[C@](C(=O)O[C@@H]8O[C@H](CO)[C@@H](O)[C@H](O)[C@H]8O)(CC[C@@H](C)[C@@]7(C)O)CC[C@@]6(C)[C@]5(C)CC[C@H]4C3(C)C)OC[C@H](O)[C@@H]2O)[C@H](O)[C@H](O)[C@H]1O`, in experiment [1], the inhibition was 72.8%. Besides, the result in experiment [2] and in experiment [3] was inactive.

For `CC1(C)CC[C@]2(C(=O)O[C@@H]3O[C@H](CO)[C@@H](O)[C@H](O)[C@H]3O)CC[C@]3(C)C(=CC[C@@H]4[C@@]5(C)CC[C@H](O[C@H]6O[C@@H](C(=O)O)[C@H](O)[C@@H](O)[C@@H]6O)[C@@](C)(CO)[C@@H]5CC[C@]43C)[C@@H]2C1`, the inhibition in experiment [1] is 64.3%; in experiment [2], 36.5%; in experiment [3] it was 15.7%.

`C[C@H]1[C@H](C)CC[C@]2(C(=O)O[C@@H]3O[C@H](CO)[C@@H](O)[C@H](O)[C@H]3O)CC[C@]3(C)C(=CC[C@@H]4[C@@]5(C)C[C@@H](O)[C@H](O[C@@H]6OC[C@H](O)[C@H](O)[C@H]6O)[C@@](C)(CO)[C@@H]5CC[C@]43C)[C@H]12` returned an inhibition in experiment [1] of 35.5%. For the same molecule, the result in experiment [2] and in experiment [3] was inactive.

For the molecule `C[C@@H]1O[C@@H](O[C@H]2[C@H](OC(=O)[C@]34CC[C@@H](C)[C@@](C)(O)[C@H]3C3=CC[C@@H]5[C@@]6(C)CC[C@H](O[C@@H]7OC[C@H](O)[C@H](O[C@@H]8O[C@H](CO)[C@@H](O)[C@H](O)[C@H]8O)[C@H]7O[C@@H]7O[C@@H](C)[C@H](O)[C@@H](O)[C@H]7O)C(C)(C)[C@@H]6CC[C@@]5(C)[C@]3(C)CC4)O[C@H](CO)[C@@H](O)[C@@H]2O)[C@H](O)[C@H](O)[C@H]1O`, the result in experiment [1] and in experiment [3] was inactive. In experiment [2], this molecule returned an inhibition of 10.6%.

For `C[C@@H]1O[C@@H](O[C@H]2[C@H](O[C@H]3CC[C@]4(C)[C@H]5[C@@H](O)CC6=C7[C@]8(CC[C@](C)(OC8=O)[C@@]7(C)O)CC[C@@]6(C)[C@]5(C)CC[C@H]4C3(C)C)OC[C@H](O)[C@@H]2O[C@@H]2O[C@H](CO)[C@@H](O)[C@H](O)[C@H]2O[C@@H]2O[C@H](CO)[C@@H](O)[C@H](O)[C@H]2O)[C@H](O)[C@H](O)[C@H]1O`, the result in experiment [1], in experiment [2] and in experiment [3] was inactive.

In the case of `C[C@@H]1CC[C@]2(C(=O)O[C@@H]3O[C@H](CO)[C@@H](O)[C@H](O)[C@H]3O)CC[C@]3(C)C(=CC[C@@H]4[C@@]5(C)CC[C@H](O[C@@H]6OC[C@H](O)[C@H](O)[C@H]6O)[C@@](C)(CO)[C@@H]5CC[C@]43C)[C@@H]2[C@]1(C)O`, the inhibition in experiment [1] was 18.9%. The result in experiment [2] and in experiment [3] was inactive.

Take `C[C@@H]1O[C@@H](O[C@H]2[C@H](OC(=O)[C@]34CCC(C)(C)[C@@H](O)[C@H]3C3=CC[C@@H]5[C@@]6(C)CC[C@H](O[C@@H]7OC[C@H](O)[C@H](O[C@@H]8O[C@H](CO)[C@@H](O)[C@H](O)[C@H]8O)[C@H]7O[C@@H]7O[C@@H](C)[C@H](O)[C@@H](O)[C@H]7O)C(C)(C)[C@@H]6CC[C@@]5(C)[C@]3(C)CC4)O[C@H](CO)[C@@H](O)[C@@H]2O)[C@H](O)[C@H](O)[C@H]1O`: the result in experiment [1], in experiment [2] and in experiment [3] was inactive.

In the case of `C[C@@H]1O[C@@H](O[C@H]2[C@H](O[C@H]3CC[C@]4(C)[C@H]5CC=C6[C@@H]7[C@H](O)C(C)(C)CC[C@]7(C(=O)O[C@@H]7O[C@H](CO)[C@@H](O)[C@H](O)[C@H]7O)CC[C@@]6(C)[C@]5(C)CC[C@H]4C3(C)C)OC[C@H](O)[C@@H]2O[C@@H]2O[C@H](CO)[C@@H](O)[C@H](O)[C@H]2O)[C@H](O)[C@H](O)[C@H]1O`, in experiment [1], the inhibition was 20%. Also, the result in experiment [2] and in experiment [3] was inactive.

`CC1(C)[C@@H](O[C@@H]2O[C@H](CO)[C@@H](O)[C@H](O)[C@H]2O[C@@H]2O[C@H](CO)[C@@H](O)[C@H](O)[C@H]2O)CC[C@]2(C)[C@H]3C[C@@H](O)C4=C5[C@]6(CC[C@](C)(OC6=O)[C@@]5(C)O)CC[C@@]4(C)[C@]3(C)CC[C@@H]12`: the inhibition in experiment [1] amounted to 43%. For the same molecule, the result in experiment [2] and in experiment [3] was inactive.

`C[C@@H]1CC[C@]2(C(=O)O[C@@H]3O[C@H](CO)[C@@H](O)[C@H](O)[C@H]3O)CC[C@]3(C)C(=CC[C@@H]4[C@@]5(C)CC[C@H](O[C@H]6O[C@@H](C(=O)O)[C@H](O)[C@@H](O)[C@@H]6O)C(C)(C)[C@@H]5CC[C@]43C)[C@@H]2[C@]1(C)O` yielded an inhibition in experiment [1] of 12.5%. Moreover, the outcome in experiment [2] was inactive.

The values are drawn from ChEMBL document CHEMBL1144087, “Triterpenoid saponins from Ilex kudincha” (J Nat Prod, 1999).
